Measurements reported in patent US10342786B2, “P38 kinase inhibitors reduce DUX4 and downstream gene expression for the treatment of FSHD” (Fulcrum Therapeutics, Inc., priority 2017, dated 2019).

Test system: ZSCAN4, TRIM43, LEUTX, KHDC1L
Experiment: DUX4-regulated downstream genes by real time PCR in FSHD myotubes
Format: cell-based, human
Settings: 1 μM ASO; FSHD myotubes vs DMSO
Protocol: For qPCR, dilute 1:10 and use 2 μL for a 10 μL 1-step RT-qPCR reaction. For detection of GAPDH, RPLPO, TBP, MYOG, FRG1, MYH3, ACTN2, etc.). Per 10 μL reaction: RNA (1:10 dilution lysate) 2 μL, Fast Advanced Taqman Master Mix (2×) 5 μL, RT enzyme mix (40×) 0.25 μL, Taqman probe set (20×) 0.5 μL, H2O 2.25 μL. The following reaction protocol was run on the QuantStudio 7: 48° C. for 15 min, 50° C. for 2 min, 95° C. for 30 sec, 40×, 95° C. for 5 sec, 60° C. for 30 sec, then plates were read as specified by the manufacturer (Thermo). For 1-step RT-Preamplification used for detection of DUX4 downstream genes, i.e. MBD3L2, ZSCAN4, LEUTX, TRIM43, KHDC1L. POL2RA-VIC was used as Endogenous control). Per 10 μL reaction: RNA (1:10 dilution lysate) 2.25 μL, Taqman Pre-Amp Master Mix (2×) 5 μL, RT enzyme mix (40×) 0.25 μL, Taqman probe set (0.2×)*2.5 μL, * Pooling the TaqMan Assays: equal volumes of each 20× TaqMan® Gene Expression Assay, up to 100 assays were combined. For example, to pool 50 TaqMan assays, 10 μL of each assay were combined in a microcentrifuge tube. The pooled TaqMan assays were diluted using 1×TE buffer so that each assay is at a final concentration of 0.2×. For the above example, add 500 μL of 1×TE buffer to the pooled TaqMan assays for a total final volume of 1 mL. The QuantStudio7 protocol was used 48° C. 15 min, 95° C. 10 min, 10 cycles: 95° C. 15 sec, 60° C. 4 min, 4° C. infinite. Samples were then diluted to 50 μL and continue with the qPCR step. Per 10 μL reaction: Preamp dilution 2 μL, Fast Advanced Taqman Master Mix (2×) 5 μL, Taqman probe set (20×) 0.5 μL, H2O 2.5 μL. When multiplexing the volume was adjusted to 10 μL total). The following program was run on the QuantStudio7: 50° C. for 2 min, 95° C. for 30 sec, 40×, 95° C. for 5 sec, 60° C. for 30 sec, plates were read as per the manufacturers specifications (Thermo).
Wild type myotubes were treated with DMSO control vehicle, and mature patient-derived FSHD myotubes that express DUX4 protein were treated with DMSO vehicle control or 1 μM of a DUX4 sequence-directed antisense oligonucleotide (ASO; FTX-2) purchased from Exiqon. After treatment, the myotubes were lysed in 19.5 μL of Roche Real Time Ready Lysis Buffer, 0.25 μL of DNAsel (Ambion, AM2222), 0.25 μL of Protector RNase Inhibitor (Roche, 3335402001), and the RNA was collected in an RNeasy Micro Kit Master Mix. Expression levels of DUX4-regulated downstream genes (ZSCAN4, TRIM43, MBD3L2, LEUTX, and KHDC1L) was determined by real time PCR (ThermoFisher Scientific, 4484262), ZSCAN4 Taqman Assay (ThermoFisher Scientific, Hs00537549 ml, FAM-MGB), MYOG Taqman Assay (ThermoFisher Scientific, Hs01072232_ml, JUN-QSY), RPLPO Taqman Assay (ThermoFisher Scientific, Hs99999902_ml), and/or LEUTX Taqman Assay (ThermoFisher Scientific, Hs00418470_ml). […]

FTX-2: DUX4 sequence-directed antisense oligonucleotide purchased from Exiqon, CAGCGTCGGAAGGTGG (SEQ ID NO: 1) (listed as DNA, chemistry not given here)
reduced amounts: KHDC1L expression | LEUTX expression | TRIM43 expression | ZSCAN4 expression
